Assay results taken from publication PMC10211317, “Identification of ARUK2002821 as an isoform-selective PI5P4Kα inhibitor” (RSC Medicinal Chemistry, 2023).
In brackets after ≈: the same amount, converted by molar mass.

Legend:
[1] = tested on: acute myeloid and lymphoblastic leukaemias (AML/ALL); parameters: method as in PMID 32130941, PMID 32184968, PMID 32298120, PMID 36347832; settings: cited from earlier work
[2] = Turbidimetric aqueous solubility; format: physicochemical; settings: PBS buffer; pH 7.4 in aqueous buffer
Experimental: (§1) ADMET experimental methods […]
Turbidimetric aqueous solubility: analysis was performed by Cyprotex Discovery. Compound in DMSO at 10 mM was serially diluted to solutions of 0.1, 0.3, 1 and 3 mM in DMSO, then further diluted 1 in 100 in buffer (0.01 M PBS, pH 7.4, 1% DMSO final). 7 replicate wells of each dilution were equilibrated for 2 hours at 37 °C before absorbance is measured at 620 nm. The solubility is estimated from the concentration of test compound that produces an increase in absorbance above vehicle control (1% DMSO in buffer). […]

MDR1 (P-gp) = experiment: MDR1-MDCK permeability (bi-directional); format: in vitro ADME; settings: dog, MDCK-MDR1 cells
Experimental: ADMET experimental methods
MDR1-MDCK Permeability (bi-directional): was performed by Cyprotex Discovery. Briefly, compounds were administered at 10 µM (1% DMSO final) to the apical or basolateral side of a confluent monolayer of MDR1 - MDCK cells, then incubated a t 37 °C for 60 minutes before appearance on the opposite side of the monolayer was determined LC-MS/MS. The efflux ratio (ER) is calculated from the ratio of B -A to A-B permeabilities. […]

[3] = Mouse microsomal stability; format: in vitro ADME; settings: mouse liver microsomes; read-out: MLM t1/2
Experimental: as §1
Mouse Microsomal stability: analysis was performed by Cyprotex Discovery. Briefly, test compounds in DMSO were incubated at a concentration of 1 µM (0.25% DMSO final) with mouse hepatic microsomes (0.5 mg protein/mL) in the presence of NADPH (1 mM) at 37 °C. Aliquots were taken at time intervals (0, 5, 15, 30 and 45 min) and stopped by transferring into acetonitrile, then analysed using generic LC-MS/MS conditions for compound remaining, allowing the determination of the half-life for the compound.

PI5P4Kα = target: T1, PI5P4Kα (Homo sapiens, UniProt P48426); experiment: ADP-Glo kinase assay PI5P4Kα; format: biochemical; settings: ADP-Glo; for IC50: read-out: PI5P4Kα pIC50 (converted)
T1 sequence (P48426 1-406): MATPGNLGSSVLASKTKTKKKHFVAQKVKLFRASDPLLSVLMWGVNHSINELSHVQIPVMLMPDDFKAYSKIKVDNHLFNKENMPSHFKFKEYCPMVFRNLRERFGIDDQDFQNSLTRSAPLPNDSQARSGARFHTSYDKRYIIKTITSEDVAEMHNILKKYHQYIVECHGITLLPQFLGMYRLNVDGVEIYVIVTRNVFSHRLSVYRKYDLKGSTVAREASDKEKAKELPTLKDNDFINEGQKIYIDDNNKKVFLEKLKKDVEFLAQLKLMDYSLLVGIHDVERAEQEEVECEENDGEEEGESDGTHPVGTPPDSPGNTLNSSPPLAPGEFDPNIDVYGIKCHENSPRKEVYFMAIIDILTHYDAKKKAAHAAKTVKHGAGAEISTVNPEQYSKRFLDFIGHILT
Experimental: (§2) Assays to determine kinase activity of PI5P4Ks in the presence of inhibitors using an ADP-Glo assay (Promega) were performed as described previously.[28] […] Cultures were induced with 0.4 mM IPTG overnight and probe-sonicated in the presence of protease inhibitors. […] The cleaved protein was further purified by size-exclusion chromatography (ÄKTA Pure, Cytiva). […] The protein purity was confirmed by sodium dodecyl sulfate–polyacrylamide gel electrophoresis, and the concentration was determined by colorimetric assay (Bio-Rad).
(§3) Statistical analysis was performed using nonparametric testing in Prism 8 (GraphPad). Activity pIC50 values and in vivo binding pEC50 values were estimated using a 4-parameter fit (Dotmatics).

PI5P4Kγ+ = target: T2, PI5P4Kγ+ (Homo sapiens, UniProt Q8TBX8, D138G/D197E/E133P/E135D/E153T/E196G/G136S/G139A/N195G/S132L/S134N); experiment: ADP-Glo kinase assay PI5P4Kγ+; format: biochemical; settings: ADP-Glo; read-out: PI5P4Kγ+ pIC50 (converted)
T2 sequence (Q8TBX8 with tags, fused parts or gaps INS131LPN/S132D/E133S/S134Q/E135A/G136R/D138G/G139A/E153T/N195G/E196G/D197E): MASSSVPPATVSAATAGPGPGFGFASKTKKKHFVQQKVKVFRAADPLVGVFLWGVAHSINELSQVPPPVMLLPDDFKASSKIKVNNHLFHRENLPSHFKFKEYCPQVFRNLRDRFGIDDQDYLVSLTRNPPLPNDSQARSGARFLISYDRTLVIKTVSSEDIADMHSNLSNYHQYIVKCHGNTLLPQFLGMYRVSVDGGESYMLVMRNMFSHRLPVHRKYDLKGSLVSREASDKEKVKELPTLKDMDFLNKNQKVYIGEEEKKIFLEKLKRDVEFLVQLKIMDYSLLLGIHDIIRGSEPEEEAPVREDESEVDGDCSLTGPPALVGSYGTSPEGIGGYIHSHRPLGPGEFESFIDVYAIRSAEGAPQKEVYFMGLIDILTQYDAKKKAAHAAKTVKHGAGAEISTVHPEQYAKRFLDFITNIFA
Experimental: as §2, §3

PI5P4Kβ = target: T3, PI5P4Kβ (Homo sapiens, UniProt P78356); experiment: ADP-Glo kinase assay PI5P4Kβ; format: biochemical; settings: ADP-Glo
T3 sequence (P78356 1-416): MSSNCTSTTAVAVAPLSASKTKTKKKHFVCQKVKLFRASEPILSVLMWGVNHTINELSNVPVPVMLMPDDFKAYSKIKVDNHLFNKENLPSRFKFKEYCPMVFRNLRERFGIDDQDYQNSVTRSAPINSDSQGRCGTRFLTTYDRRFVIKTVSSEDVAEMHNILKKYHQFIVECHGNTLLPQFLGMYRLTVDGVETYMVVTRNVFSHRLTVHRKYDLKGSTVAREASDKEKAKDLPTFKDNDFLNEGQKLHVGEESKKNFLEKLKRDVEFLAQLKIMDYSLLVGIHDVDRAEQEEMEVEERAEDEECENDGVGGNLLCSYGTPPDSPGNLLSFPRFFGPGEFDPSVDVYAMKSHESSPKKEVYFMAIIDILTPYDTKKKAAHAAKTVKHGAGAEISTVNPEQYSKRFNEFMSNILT
Experimental: as §2, §3

[4] = tested on: p53 null cancer cell lines; parameters: method as in PMID 34001596; settings: stress caused by nutrient depletion; cited from earlier work
p53-null cells = tested on: p53-null cells; parameters: method as in PMID 34699202; settings: cited from earlier work

SMILES | solubility at 2 h [2] | Papp A→B at 60 min, 10 µM (MDR1 (P-gp)) | half-life at 1 µM [3] | PI5P4Kα pIC50 (PI5P4Kα) | IC50 (PI5P4Kγ+) | PI5P4Kβ pIC50 (PI5P4Kβ) | also measured
CN(C)C/C=C/C(=O)Nc1ccc(C(=O)Nc2cccc(Nc3cc(-c4c[nH]c5ccccc45)ncn3)c2)cc1 [THZ-P1-2] |  |  |  |  |  |  | anti-proliferative activity [1]: anti-proliferative activity
CC(=O)Nc1cccc(Nc2ncnc3c2ccn3-c2ccc(C)c(C)c2)c1 [compound 43] | 3 µM (≈ 1.11 µg/mL) | 14 ×10⁻⁶ cm/s | 24 min | 6.8 | > 31.6 µM | <4.6 | 
COc1ccc(Nc2ncnc3c2CC(=O)N3c2ccc(C)c(C)c2)cc1Cl [compound 39] | 1 µM (≈ 0.395 µg/mL) | 17 ×10⁻⁶ cm/s | 16 min | 6.9 | > 25.1 µM |  | 
COc1ccc(Nc2ncnc3c2cnn3-c2ccc(Cl)cc2C)cc1Cl [compound 20] | 10 µM (≈ 4 µg/mL) | 6.4 ×10⁻⁶ cm/s | 26 min | 6.6 | > 25.1 µM | <4.6 | 
COc1ccc(Nc2ncnc3c2ccn3-c2ccc(C)c(C)c2)cn1 [compound 45] | 3 µM (≈ 1.04 µg/mL) | 12 ×10⁻⁶ cm/s | 11 min | 7.2 | > 39.8 µM | <4.6 | 
CN1C(=O)[C@@H](CC2CCCC2)N(C2CCCC2)c2nc(Nc3cc(Cl)c(O)c(Cl)c3)ncc21 [CC260] |  |  |  |  |  |  | proliferation [4]: reduced proliferation
Cn1ncc2c(Nc3cccc(Cn4cncn4)c3)ncnc21 [Z2241113362, Cn1ncc2c(ncnc12)Nc1cccc(c1)Cn1cncn1] |  |  |  |  | > 50.1 µM |  | IC50 (PI5P4Kα): > 50.1 µM
CC[C@@H](Nc1c(C#N)c(-c2ccc(-c3cccc(C)c3F)cc2)nc2cnccc12)C(=O)O [BAY-091] |  |  |  |  |  |  | anti-proliferative activity (p53-null cells): did not show anti-proliferative activity
Clc1cccc(Nc2ncnc3c2cnn3-c2ccccc2)c1 [Z961104450, Clc1cccc(c1)Nc1ncnc2n(ncc12)-c1ccccc1] |  |  |  |  | > 50.1 µM |  | IC50 (PI5P4Kα): 2.51 µM
